Measured values reported in PubChem BioAssay (NCI).
Where “and” joins values, the source holds several entries; their conditions need not be identical. Equal values may be shown once.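 Tested at 5 concentrations; 48 h exposure; 96-well plates; endpoints linearly interpolated, else capped at highest concentration. GI50 is the concentration that inhibits growth by half. TGI: concentration producing complete growth inhibition.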

Assays:
Experiment in all cases: NCI tumour cell line growth inhibition, 48 h; in the data active means GI50 below about 0.43 µM; inactive means the rest
SF-539 CNS = tested on: SF-539 CNS
MDA-MB-435 = tested on: MDA-MB-435
MOLT-4 leukemia = tested on: MOLT-4 leukemia
NCI-H522 lung = tested on: NCI-H522 lung
HCC-2998 colon = tested on: HCC-2998 colon
SR leukemia = tested on: SR leukemia
HOP-92 NSCLC = tested on: HOP-92 NSCLC
RXF 393 renal = tested on: RXF 393 renal
NCI/ADR-RES ovarian = tested on: NCI/ADR-RES ovarian
SK-MEL-2 melanoma = tested on: SK-MEL-2 melanoma
ACHN renal = tested on: ACHN renal
K-562 leukemia = tested on: K-562 leukemia
SN12C renal = tested on: SN12C renal
OVCAR-3 ovarian = tested on: OVCAR-3 ovarian
BT-549 breast = tested on: BT-549 breast
IGROV1 ovarian = tested on: IGROV1 ovarian
EKVX NSCLC = tested on: EKVX NSCLC
SK-MEL-5 melanoma = tested on: SK-MEL-5 melanoma
HCT-15 colon = tested on: HCT-15 colon
MALME-3M melanoma = tested on: MALME-3M melanoma
NCI-H460 lung = tested on: NCI-H460 lung
CAKI-1 renal = tested on: CAKI-1 renal
MDA-N = tested on: MDA-N
LOX IMVI melanoma = tested on: LOX IMVI melanoma
CCRF-CEM leukemia = tested on: CCRF-CEM leukemia
U251 CNS = tested on: U251 CNS
HT29 colon = tested on: HT29 colon
NCI-H226 lung = tested on: NCI-H226 lung
OVCAR-5 ovarian = tested on: OVCAR-5 ovarian
HL-60(TB) leukemia = tested on: HL-60(TB) leukemia
T-47D breast = tested on: T-47D breast
SF-268 CNS = tested on: SF-268 CNS
TK-10 renal = tested on: TK-10 renal
M14 melanoma = tested on: M14 melanoma
MDA-MB-231 breast = tested on: MDA-MB-231 breast
SF-295 CNS = tested on: SF-295 CNS
OVCAR-8 ovarian = tested on: OVCAR-8 ovarian
MCF7 breast = tested on: MCF7 breast
KM12 colon = tested on: KM12 colon
NCI-H23 lung = tested on: NCI-H23 lung
SNB-75 CNS = tested on: SNB-75 CNS
HCT-116 colon = tested on: HCT-116 colon
A549 NSCLC = tested on: A549 NSCLC
HS 578T breast = tested on: HS 578T breast
RPMI-8226 leukemia = tested on: RPMI-8226 leukemia
UACC-62 melanoma = tested on: UACC-62 melanoma
UO-31 renal = tested on: UO-31 renal
SW-620 colon = tested on: SW-620 colon
PC-3 prostate = tested on: PC-3 prostate
786-0 renal = tested on: 786-0 renal
UACC-257 melanoma = tested on: UACC-257 melanoma
A498 renal = tested on: A498 renal
DU-145 prostate = tested on: DU-145 prostate
HOP-62 NSCLC = tested on: HOP-62 NSCLC
SK-OV-3 ovarian = tested on: SK-OV-3 ovarian
SNB-19 CNS = tested on: SNB-19 CNS
COLO 205 colon = tested on: COLO 205 colon
SK-MEL-28 melanoma = tested on: SK-MEL-28 melanoma
OVCAR-4 ovarian = tested on: OVCAR-4 ovarian
LXFL 529 NSCLC = tested on: LXFL 529 NSCLC
DLD-1 colon = tested on: DLD-1 colon
M19-MEL melanoma = tested on: M19-MEL melanoma
KM20L2 colon = tested on: KM20L2 colon

O=C(O)CCCSc1nc2ccccc2s1
> 100 µM: TGI (SF-539 CNS) | TGI (MDA-MB-435) | TGI (MOLT-4 leukemia) | TGI (NCI-H522 lung) | TGI (HCC-2998 colon) | TGI (SR leukemia) | TGI (HOP-92 NSCLC) | TGI (RXF 393 renal) | TGI (NCI/ADR-RES ovarian) | TGI (SK-MEL-2 melanoma) | TGI (ACHN renal) | TGI (K-562 leukemia) | TGI (SN12C renal) | TGI (OVCAR-3 ovarian) | TGI (BT-549 breast) | TGI (IGROV1 ovarian) | TGI (EKVX NSCLC) | TGI (SK-MEL-5 melanoma) | TGI (HCT-15 colon) | TGI (MALME-3M melanoma) | TGI (NCI-H460 lung) | TGI (CAKI-1 renal) | TGI (MDA-N) | TGI (LOX IMVI melanoma) | TGI (CCRF-CEM leukemia) | TGI (U251 CNS) | TGI (HT29 colon) | TGI (NCI-H226 lung) | TGI (OVCAR-5 ovarian) | TGI (HL-60(TB) leukemia) | TGI (T-47D breast) | TGI (SF-268 CNS) | TGI (TK-10 renal) | TGI (M14 melanoma) | TGI (MDA-MB-231 breast) | TGI (SF-295 CNS) | TGI (OVCAR-8 ovarian) | TGI (MCF7 breast) | TGI (KM12 colon) | TGI (NCI-H23 lung) | TGI (SNB-75 CNS) | TGI (HCT-116 colon) | TGI (A549 NSCLC) | TGI (HS 578T breast) | TGI (RPMI-8226 leukemia) | TGI (UACC-62 melanoma) | TGI (UO-31 renal) | TGI (SW-620 colon) | TGI (PC-3 prostate) | TGI (786-0 renal) | TGI (UACC-257 melanoma) | TGI (A498 renal) | TGI (DU-145 prostate) | TGI (HOP-62 NSCLC) | TGI (SK-OV-3 ovarian) | TGI (SNB-19 CNS) | TGI (COLO 205 colon) | TGI (SK-MEL-28 melanoma) | TGI (OVCAR-4 ovarian)

O=C1c2ccccc2-c2n[nH]c3cccc1c23
54.6 µM and > 100 µM: TGI (HCC-2998 colon)
inactive: GI50 (SF-539 CNS) 25.1 µM | GI50 (MDA-MB-435) 15.8 µM | GI50 (MOLT-4 leukemia) 7.85 µM | GI50 (NCI-H522 lung) 15.7 µM | GI50 (HCC-2998 colon) 19.3 µM | GI50 (SR leukemia) 9.01 µM | GI50 (HOP-92 NSCLC) 23.7 µM | GI50 (RXF 393 renal) 5.89 µM | GI50 (NCI/ADR-RES ovarian) 30.5 µM | GI50 (SK-MEL-2 melanoma) 22.5 µM | GI50 (K-562 leukemia) 15.6 µM | GI50 (SN12C renal) 20.8 µM | GI50 (OVCAR-3 ovarian) 23.8 µM | GI50 (BT-549 breast) 19.3 µM | GI50 (IGROV1 ovarian) 9.32 µM | GI50 (EKVX NSCLC) 7.03 µM | GI50 (SK-MEL-5 melanoma) 25.6 µM | GI50 (HCT-15 colon) 6.66 µM | GI50 (MALME-3M melanoma) 24.1 µM | GI50 (NCI-H460 lung) 8.6 µM | GI50 (CAKI-1 renal) 2.98 µM | GI50 (LOX IMVI melanoma) 6.04 µM | GI50 (U251 CNS) 16.6 µM | GI50 (HT29 colon) 12.9 µM | GI50 (NCI-H226 lung) 10.3 µM | GI50 (HL-60(TB) leukemia) 9.8 µM | GI50 (T-47D breast) 45.1 µM | GI50 (SF-268 CNS) 12 µM | GI50 (TK-10 renal) 7.44 µM | GI50 (M14 melanoma) 5.03 µM | GI50 (MDA-MB-231 breast) 35.8 µM | GI50 (MCF7 breast) 21.1 µM | GI50 (KM12 colon) 3.1 µM | GI50 (HCT-116 colon) 6.15 µM | GI50 (HS 578T breast) 21 µM | GI50 (RPMI-8226 leukemia) 14.1 µM | GI50 (UACC-62 melanoma) 19.7 µM | GI50 (UO-31 renal) 4.02 µM | GI50 (PC-3 prostate) 17.8 µM | GI50 (786-0 renal) 11.9 µM | GI50 (A498 renal) 4.95 µM | GI50 (DU-145 prostate) 13 µM | GI50 (HOP-62 NSCLC) 32.1 µM | GI50 (SK-OV-3 ovarian) 7.39 µM | GI50 (COLO 205 colon) 23.9 µM | GI50 (SK-MEL-28 melanoma) 49.3 µM | GI50 (OVCAR-4 ovarian) 20.2 µM
> 100 µM and 99.1 µM: TGI (IGROV1 ovarian)
52 µM and 76.2 µM: TGI (TK-10 renal)
37.5 µM and > 94.6 µM: TGI (SK-MEL-5 melanoma)
> 100 µM and 34.2 µM: TGI (LOX IMVI melanoma)
59.2 µM and > 100 µM: TGI (NCI/ADR-RES ovarian)
> 100 µM and 55.9 µM: TGI (UO-31 renal)
86.3 µM and > 100 µM: TGI (SF-295 CNS)
> 100 µM: TGI (SF-539 CNS) | TGI (MDA-MB-435) | TGI (MOLT-4 leukemia) | TGI (SR leukemia) | TGI (HOP-92 NSCLC) | TGI (SK-MEL-2 melanoma) | TGI (ACHN renal) | TGI (K-562 leukemia) | TGI (SN12C renal) | TGI (BT-549 breast) | TGI (HCT-15 colon) | TGI (NCI-H460 lung) | TGI (MDA-N) | TGI (CCRF-CEM leukemia) | TGI (U251 CNS) | TGI (HT29 colon) | TGI (HL-60(TB) leukemia) | TGI (T-47D breast) | TGI (SF-268 CNS) | TGI (M14 melanoma) | TGI (MDA-MB-231 breast) | TGI (OVCAR-8 ovarian) | TGI (MCF7 breast) | TGI (HCT-116 colon) | TGI (A549 NSCLC) | TGI (HS 578T breast) | TGI (RPMI-8226 leukemia) | TGI (SW-620 colon) | TGI (PC-3 prostate) | TGI (786-0 renal) | TGI (UACC-257 melanoma) | TGI (DU-145 prostate) | TGI (HOP-62 NSCLC) | TGI (SK-OV-3 ovarian) | TGI (SNB-19 CNS) | TGI (COLO 205 colon) | TGI (SK-MEL-28 melanoma) | TGI (OVCAR-4 ovarian)
35.4 µM and 52.4 µM: TGI (A498 renal)
92.1 µM and > 100 µM: TGI (OVCAR-3 ovarian)
> 100 µM and 56.9 µM: TGI (RXF 393 renal)
97.6 µM and > 100 µM: TGI (SNB-75 CNS)
> 100 µM and 85.1 µM: TGI (EKVX NSCLC)
18.2 µM and 22.6 µM: TGI (CAKI-1 renal)
50.4 µM and > 92.8 µM: TGI (NCI-H522 lung)
> 100 µM and 78.4 µM: TGI (NCI-H226 lung)
58.9 µM and > 86.8 µM: TGI (MALME-3M melanoma)
86.6 µM and > 100 µM: TGI (UACC-62 melanoma)
85.4 µM and > 100 µM: TGI (OVCAR-5 ovarian)
58.1 µM and > 100 µM: TGI (NCI-H23 lung)
72 µM and > 100 µM: TGI (KM12 colon)

CC1OC(OC2CCCc3c(O)c4c(c(O)c32)C(=O)c2ccccc2C4=O)CC(N)C1O (centres undefined)
2.86 µM: TGI (HOP-92 NSCLC)
3.27 µM: TGI (EKVX NSCLC) | TGI (MALME-3M melanoma)
2.69 µM: TGI (DLD-1 colon)
2.8 µM: TGI (NCI-H460 lung)
3.02 µM: TGI (TK-10 renal)
3.04 µM: TGI (SNB-19 CNS)
2.94 µM: TGI (LXFL 529 NSCLC) | TGI (HOP-62 NSCLC)
2.64 µM: TGI (CCRF-CEM leukemia)
3.84 µM: TGI (KM20L2 colon)
2.91 µM: TGI (CAKI-1 renal)
3.11 µM: TGI (HCT-116 colon) | TGI (UO-31 renal)
3.44 µM: TGI (U251 CNS) | TGI (OVCAR-5 ovarian)
3.22 µM: TGI (SF-295 CNS) | TGI (NCI-H23 lung)
3.51 µM: TGI (HCC-2998 colon)
3.24 µM: TGI (M19-MEL melanoma)
2.87 µM: TGI (HT29 colon)
2.23 µM: TGI (RXF 393 renal)
3.29 µM: TGI (SF-268 CNS)
2.66 µM: TGI (SNB-75 CNS)
3.06 µM: TGI (NCI-H522 lung)
2.98 µM: TGI (KM12 colon)
2.55 µM: TGI (786-0 renal)
3.35 µM: TGI (ACHN renal)
3.21 µM: TGI (SK-MEL-2 melanoma) | TGI (M14 melanoma)
3 µM: TGI (UACC-257 melanoma)
3.37 µM: TGI (A549 NSCLC)
3.32 µM: TGI (SK-MEL-28 melanoma)
3.01 µM: TGI (SF-539 CNS)
3.2 µM: TGI (OVCAR-4 ovarian)
2.35 µM: TGI (K-562 leukemia)
3.23 µM: TGI (A498 renal)
2.62 µM: TGI (OVCAR-3 ovarian)
2.42 µM: TGI (SK-OV-3 ovarian)
